Assay [1] addresses yeast α-glucosidase. Particulars: against yeast α-glucosidase; cited from earlier work.
Assay [2] concerns the target T1, Mtb GlgE (Mycobacterium tuberculosis, UniProt P9WQ17).
T1 sequence (P9WQ17 1-701): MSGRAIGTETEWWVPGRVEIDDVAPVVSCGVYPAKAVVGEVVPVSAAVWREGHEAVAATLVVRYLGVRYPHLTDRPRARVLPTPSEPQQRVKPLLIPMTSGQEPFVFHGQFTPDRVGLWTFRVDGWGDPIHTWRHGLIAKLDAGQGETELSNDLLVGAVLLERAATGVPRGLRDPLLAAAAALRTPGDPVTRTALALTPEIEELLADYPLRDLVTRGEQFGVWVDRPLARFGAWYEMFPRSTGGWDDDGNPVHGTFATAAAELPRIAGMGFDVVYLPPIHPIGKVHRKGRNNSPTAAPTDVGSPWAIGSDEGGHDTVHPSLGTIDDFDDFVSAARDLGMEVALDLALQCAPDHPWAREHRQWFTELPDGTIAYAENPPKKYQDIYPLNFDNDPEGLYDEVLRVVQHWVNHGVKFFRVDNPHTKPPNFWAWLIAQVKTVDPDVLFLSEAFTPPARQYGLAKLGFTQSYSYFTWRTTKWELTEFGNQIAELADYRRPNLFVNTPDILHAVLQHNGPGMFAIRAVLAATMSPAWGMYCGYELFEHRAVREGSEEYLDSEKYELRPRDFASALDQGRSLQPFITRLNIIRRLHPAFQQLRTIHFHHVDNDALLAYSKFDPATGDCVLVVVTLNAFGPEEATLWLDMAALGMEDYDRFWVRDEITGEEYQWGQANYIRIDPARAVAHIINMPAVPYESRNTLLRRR
As to the kind of experiment: GlgE-coupled enzyme assay utilizing PNP. The assay is classed as biochemical.

Take 5-amino-5-deoxy-D-glucose [Compound 1]: in assay [1], the Ki (commonly a dissociation constant, usually derived from enzyme kinetics or from competition with a known ligand) is 6.3 µM. Compound `OC[C@H]1N[C@H](CO)[C@@H](O[C@H]2O[C@H](CO)[C@@H](O)[C@H](O)[C@H]2O)[C@@H]1O` [Compound 9, 2,5-dideoxy-3-O-α-D-glucopyranosyl-2,5-imino-D-mannitol] gave a Ki in assay [2] of 237 ± 27 µM.

The values above are taken from publication PMC4201354 (The Journal of Organic Chemistry, 2014).
